US10316056B2, “Chemical compounds and use thereof for improving muscular quality” (BIOPHYTIS, priority 2014, dated 2019)

What was measured:
[1] = tested on: S6 kinase (S6K1) phosphorylation in C2C12 cells; experiment: Phosphorylation of the S6 kinase in C2C12 cells (ELISA pS6K T389), protein synthesis; format: cell-based, mouse; conditions: Mus musculus, C2C12, 2 h; for activity at 10 µM: read-out: Protein synthesis (percentage increase in S6K phosphorylation in muscle cells); for activity: test compounds and 20E reference (10 μM), read-out: S6K1 phosphorylation level
Procedure: After several experiments in which the C2C12 cells differentiated into myotubes were incubated in the presence of IGF-1 or 20E for 2 h 30 or 6 h, two screening tests were developed. Thus, the phosphorylation of the S6 protein kinase and the expression of the myostatin gene were studied in order to determine their modulation by a growth hormone or an ecdysone and to characterize these modulations from a statistical point of view.
The C2C12 myoblast cells (ATCC CRL-1772) are seeded into 6-well plates at a density of 170 000 cells per well and cultured in a DMEM medium containing glucose in a proportion of 4.5 g/l and supplemented with fetal calf serum (10%) and with antibiotics (penicillin and streptomycin). Forty-eight hours later, the myoblasts are induced to differentiate by partial serum depletion (2% instead of 10%) for 5 days. The cells are then placed in a medium which is glucose-depleted (DMEM containing 1 g/l of glucose) and serum-free in the presence of the test molecules or of the references (100 ng/ml IGF-1 or 10 μM 20E) for 2 h. At the end of the experiment, the cells are lysed in a commercial lysis buffer (Invitrogen FNN0011) supplemented with a commercial mixture of anti-proteases (Roche 05056489001). After centrifugation, the cytoplasmic fraction containing the soluble proteins is kept and the protein concentration is determined using a commercial kit (Biorad 500-0114), the principle of which is composed of assaying by the Lowry method. The assaying of the S6 kinase phosphorylation is carried out using a commercial ELISA (Enzyme Linked ImmunoSorbent Assay) kit (Cell signaling 7063). Briefly, 50 μg of protein lysate are deposited in the wells of a 96-well microplate and incubated overnight at 4° C. with the solution of antigen specific for the pS6 kinase threonine 389 antibody. The binding of the antigen to the bottom of the wells is done electrostatically. The solution of antibody to be assayed (pS6K T389) is then incubated at 37° C. in the wells for 2 hours. The antibodies bind specifically to the antigen. The wells are then washed with washing buffer in order to remove the antigen-specific primary antibodies to be assayed which are in excess. The third step consists in binding the detection antibody. The solution of detection antibodies is incubated at 37° C. in the wells for 1 hour. The wells are then washed in order to remove the excess detection antibodies. It should be noted that the detection antibodies are coupled to an enzyme which, in the presence of its substrate, converts it into a reaction product that can be detected and measured by virtue of the appearance of a coloration. […] The appearance of a blue coloration in the substrate indicates the presence of the antibody to be assayed. In order to prevent any saturation phenomenon, a stop solution (generally containing […]) is added and brings about a change in coloration, which goes from blue to yellow. The strength thereof is proportional to the amount of enzyme present and thus to the concentration of antibody sought. The strength of the signal is measured using spectrophotometry at a wavelength of 450 nm.

[2] = tested on: myogenin transcripts; experiment: Mice subjected to a high-fat diet: myogenin transcripts of the Soleus muscle; format: in vivo, C57BL/6J mice; conditions: 5 mg/kg orally; high-fat diet for 6 weeks; FIG. 5B
Procedure: (§1) The 20E as comparative compound and the compounds according to the invention (Nos. 51 and 93) were administered orally, at a dose of 5 mg/kg of body weight, to 12-week-old C57BL/6J mice subjected to a high-fat diet for 6 weeks. The effect of the compounds on the weight and the amount of proteins of the Soleus muscle and also the transcripts of genes involved in myogenesis were evaluated.
(§2) Myogenesis, which is the process for forming muscle tissues, is controlled by several myogenic transcription factors which act as end effectors of the signaling cascade and produce transcripts involved in the various stages of development. The roles of the transcription factors have been described in various journals (Sabourin and Rudnicki 2000 and Le Grand and Rudnicki 2007). The Pax7 protein (Paired-box protein 7) maintains a population of satellite cells in quiescence and, with Myf5 (Myogenic factor 5), plays a role in the expansion of activated myoblasts. The MyoD protein (Myoblast Determination protein) appears to determine the differentiation potential of activated myoblasts, and cooperates with myogenin and the MEF2 (Myocyte Enhancer Factor 2) protein to control and bring about differentiation. Finally, MRF4 (Muscle-specific Regulatory Factor 4) is required for hypertrophy, even though it probably plays other roles. […]
(§3) The relative differences in gene expression between treatments are expressed as increase or decrease in the number of cycle times [Ct] compared with the control group, the [Ct] value of each gene having been standardized with the beta-actin gene.
(§4) The in vivo study is carried out by evaluating the effect of 20E as comparative compound and of the molecules according to the invention (Nos. 51 and 93) administered orally, at a dose of 5 mg/kg of body weight, to C57BL/6 mice subjected to a high-fat diet for 6 weeks. The effect of the molecules on the weight and the amount of proteins of the Soleus muscle and also the transcripts of genes involved in myogenesis were evaluated.

[3] = tested on: myostatin transcript; experiment: Mice subjected to a high-fat diet: myostatin transcript of the Soleus muscle; format: in vivo, C57BL/6J mice; conditions: 5 mg/kg orally; high-fat diet for 6 weeks; FIG. 4
Procedure: as §1
In order to carry out the gene expression analysis, the muscle tissues were homogenized in a Trizol solution (500 μl), and the RNAs were extracted and purified using the phenol/chloroform method. An amount of […] of RNA was used as template for the synthesis of the first cDNA strand using oligo (dT)s as primers and the AMV reverse transcriptase enzyme as described by the supplier (Applied Biosystems 4368814). The q-PCRs were then carried out using a 7900HT machine equipped with a rapid system for real-time detection by PCR (Applied Biosystems) and the standard qPCR program (1 cycle of 95° C. for 15 min, 40 cycles of 95° C. for 15 s and 60° C. for 1 min, a 60-95° C. melt curve for the Sybergreen probes). The experiments are carried out in a Sybergreen SYBR master mix (Applied Biosystems) containing the 100 ng cDNA samples and a set of primers which bind to the two different exons and at a final concentration of 200 nM.
as §3, §4

[4] = tested on: MyoD transcripts; experiment: Mice subjected to a high-fat diet: MyoD transcripts of the Soleus muscle; format: in vivo, C57BL/6J mice; conditions: 5 mg/kg orally; high-fat diet for 6 weeks; FIG. 5A
Procedure: as §1, §2, §3, §4

[5] = tested on: Soleus muscle of C57BL/6 mice subjected to a high-fat diet; experiment: Mice subjected to a high-fat diet: weight and amount of proteins of the Soleus muscle; format: in vivo, C57BL/6J mice; conditions: 5 mg/kg orally; high-fat diet for 6 weeks; compared with the control group; FIG. 3B
Procedure: as §1
The amount of proteins is determined by first lysing the muscles sampled in a 0.1N NaOH solution with the FastPrep technique. The proteins are quantified by means of a colorimetric assay derived from the Lowry method.
as §4

Row | SMILES | activity at 10 µM [1] [%] | activity [1] [%] | transcript of the myogenin gene [2] | myostatin expression in the Soleus muscle [3] | transcripts of the MyoD gene [4] | amount of proteins of the Soleus muscle [5]
1 | CCC(CC)C(=O)N(CCOC)C(C)[C@H]1CC[C@@]2(O)C3=CC(=O)[C@@H]4C[C@@H](O)[C@@H](O)C[C@]4(C)C3CC[C@]12C (stereo partly drawn) [Compound 51, 2-ethyl-N-(2-methoxyethyl)-N-[1-[(2S,3R,5R,10R,13R,14S,17S)-2,3,14-trihydroxy-10,13-dimethyl-6-oxo-2,3,4,5,9,11,12,15,16,17-decahydro-1H-cyclopenta[a]phenanthren-17-yl]ethyl]butanamide] | 110 to 129 | ~120 | increase | comparably inhibit | increase | 
2 | CCSCC(=O)[C@H]1CC[C@@]2(O)C3=CC(=O)[C@@H]4C[C@@H](O)[C@@H](O)C[C@]4(C)C3CC[C@]12C (stereo partly drawn) [Compound 93, (2S,3R,5R,10R,13R,14S,17S)-17-(2-ethylsulfanylacetyl)-2,3,14-trihydroxy-10,13-dimethyl-2,3,4,5,9,11,12,15,16,17-decahydro-1H-cyclopenta[a]phenanthren-6-one] | > 130 | 130 to 140 | increase | comparably inhibit | increase | significant increase
